Data as given in patent publication US20050267204A1, “Synergistic gold-containing compositions” (MEDICAL INNOVATIONS LIMITED, priority 1996, published 2005).
“Also recorded” adds a separate entry of the source. Read-outs that look alike come from different tables or passages of the source.

Legend:
[1] = test system: TPA-induced epidermal hyperplasia; experiment: Inhibition of TPA-induced epidermal hyperplasia (epidermal thickness) on back skin of mice; format: in vivo, BALB/c mice; conditions: for Emax: read-out: Emax (% inhibition); for Relative potency: hydrocortisone acetate = 1.0
Procedure: (§1) The mice were housed in stainless steel cages, 6 mice per cage under normal laboratory conditions (room temperature at about 22° C.) at least 7 days before the experiments for acclimatization. Food and water were allowed ad libitum throughout the experiment period. The backs of the mice were shaved with an electric clipper two days before each treatment and only those mice showing no hair regrowth were used (i.e., the mice in the resting phase of the hair growth cycle were selected). During treatment, the mice were held with their tails and put on top of the cage so that they grasped the cage and rested there. The solutions were applied to an area approximately 2 cm×2 cm on the shaved back of the mice by using a “Pipetman” to apply the solution. If auranofin ointment or ointment base was applied, the amount was standardized by using a microspatula which was crimped at one end, the ointment was then put into the ridge and the excess removed by means of another microspatula and applied sparingly twice a day. After a fixed time, the mice were killed routinely by cervical dislocation between 9 a.m. and 11 a.m. to avoid variations due to circadian rhythms, and an area (1 cm×1 cm) was excised from the centre of the treated area by scalpel and scissors. The rest of the tissues were disposed by combustion. The tissues were then fixed, embedded, sectioned and stained.
Epidermal thickness was determined by image analysis. This image analysis system was a minicomputer (Tracor Northern TN8500) attached to a light microscope (Zeiss Axioplan) and a camcorder (Sony DXC-3000P). Sections were taken from each tissue block and 20 measurements were taken at fixed intervals from each section. The average value for the 20 measurements was obtained and entered as one value for each mouse. The mean and SEM for the six mice in each treatment group were calculated.
(§2) The percent inhibition of drug on TPA-induced skin responses (i.e., epidermal hyperplasia, inflammatory cell infiltration and skin-fold thickness) was calculated by using the following formula: [formula]
(§3) This provides estimates of (a) the potency, (b) the efficacy or maximum effect (Emax) and the slope of the log concentration-response curve by using Hill coefficient (γ). The Hill Equation may be expressed as follows: [formula] where IC50 is the drug concentration producing 50% of the maximal response and Emax refers to the maximal effect produced by the drug and is also termed efficacy. Efficacy is the measurement of the intrinsic ability of a drug to initiate a response once it occupies receptor sites. […] The Hill coefficient (γ) measures the slope of the dose-effect curve which can be markedly influenced by the shape of the curve that describes the binding of the drug to the receptor. For many drugs, y lies between 0.6 and 1.5. […] On the other hand, when γ is less than 1, with a shallow hyperbolic concentration effect relationship, the activity occurs over a wide range of drug levels.
(§4) In the present study, concentration-response curves were obtained for a series of corticosteroids. In these experiments, curve fitting was accomplished using a computer programme called “The Scientist” (MicroMath Scientific Software, Salt Lake City, Utah, USA.) in which the parameters, Emax, IC50 and Hill coefficient (γ) for each steroids were estimated by using non-linear regression and least square fits.
Mice were divided into treatment groups. TPA and corticosteroids were premixed to the concentrations required and applied to the backs of mice immediately. For those steroids not very soluble in acetone (i.e., betamethasone, dexamethasone, hydrocortisone and hydrocortisone acetate), the drugs were dissolved in 100 μL dimethylformamide before further dilution with acetone. The efficacy of corticosteroids in inhibiting epidermal hyperplasia, inflammatory cell infiltration and skin-fold thickness was assessed as described previously. Concentration-response curves were determined after computer-fitting of data.

[2] = test system: TPA-induced inflammatory cell infiltration into the dermis; experiment: Inhibition of TPA-induced inflammatory cell infiltration into the dermis of mice; format: in vivo, BALB/c mice; conditions: for Emax: read-out: Emax (% inhibition); for Relative potency: hydrocortisone acetate = 1.0; for Potency for inhibition of TPA-induced inflammatory cell infiltration (in words): ranking in text
Procedure: as §1
Infiltration of inflammatory cells was determined by the same image analysis system using the section taken from the block of mouse skin embedded in paraffin wax or Spurr's resin and stained with haematoxylin and eosin or toluidine blue respectively. For each section, 10 fields, unless otherwise stated, were chosen randomly and the cell density per mm^2 of field determined. The average value for the 10 fields was obtained and entered as one value for each mouse. The mean and SEM for the six mice in each treatment group were calculated.
The measurement of the inflammatory cell infiltration included the background values which included other materials in the dermis stained in the same way.
as §2, §3, §4
Mice were divided into treatment groups. TPA and corticosteroids were premixed to the concentrations required and applied to the backs of mice immediately.

[3] = Mus musculus, topical, read-out: IC50 (M × 10^−4), Hill equation fit, means ± SD, steroid premixed with TPA, topical
[4] = Hill equation fit, means ± SD, steroid premixed with TPA, topical
[5] = Hill equation fit, means ± SD, steroid premixed with TPA, topical, read-out: IC50 (M × 10^−4)
[6] = IC50 without auranofin divided by IC50 with auranofin (0.2%)
[7] = from Hill equation, concentration that produced 50% of Emax, read-out: IC50 for inhibition of epidermal thickening (M × 10^−4)
[8] = read from concentration-response curve, concentration that inhibited 50% of the TPA effect, read-out: IC50 for inhibition of epidermal thickening (M × 10^−4)
[9] = with auranofin (0.2%), from computer fitted graph, means ± SD, read-out: Apparent IC50 (M × 10^−4) with auranofin
[10] = without auranofin, from computer fitted graph, means ± SD, read-out: Apparent IC50 (M × 10^−4) without auranofin
[11] = from Hill equation, concentration that produced 50% of Emax, read-out: IC50 for inhibition of inflammatory cell infiltration in the dermis (M × 10^−4)
[12] = read from concentration-response curve, concentration that inhibited 50% of the TPA effect, read-out: IC50 for inhibition of inflammatory cell infiltration in the dermis (M × 10^−4)
[13] = Mus musculus, from Hill equation, concentration that produced 50% of Emax, read-out: IC50 for inhibition of epidermal thickening (M × 10^−4)
[14] = Mus musculus, read from concentration-response curve, concentration that inhibited 50% of the TPA effect, read-out: IC50 for inhibition of epidermal thickening (M × 10^−4)
[15] = Mus musculus, topical, Hill equation fit, means ± SD, steroid premixed with TPA, topical, read-out: IC50 (M × 10^−4)
[16] = Mus musculus, Hill equation fit, means ± SD, steroid premixed with TPA, topical
[17] = Mus musculus, from Hill equation, concentration that produced 50% of Emax, read-out: IC50 for inhibition of inflammatory cell infiltration in the dermis (M × 10^−4)
[18] = Mus musculus, read from concentration-response curve, concentration that inhibited 50% of the TPA effect, read-out: IC50 for inhibition of inflammatory cell infiltration in the dermis (M × 10^−4)

Row | IC50 [1, 5] | IC50 [1, 7] | IC50 [1, 8] | IC50 [2, 5] | IC50 [2, 11] | IC50 [2, 12] | IC50 [1, 13] | IC50 [1, 14] | IC50 [1, 15] | IC50 [2, 17] | IC50 [2, 18] | Compound | Relative potency ([1]; from Hill-equation IC50) | Relative potency ([1]; from IC50 read from curve) | Potency for inhibition of TPA-induced epidermal hyperplasia (in words) ([1]; ranking in text) | Relative potency ([2]; from Hill-equation IC50) | Relative potency ([2]; from IC50 read from curve) | Potency for inhibition of TPA-induced inflammatory cell infiltration (in words) [2] | Emax (% inhibition) [1, 4] | Emax (% inhibition) [2, 4] | Emax [1, 16] | other results
1 |  |  |  |  |  |  | 15 µM | 22 µM | 15 ± 2 µM | 29 µM | 65 µM | CCCCC(=O)O[C@]1(C(=O)CO)[C@@H](C)C[C@H]2[C@@H]3CCC4=CC(=O)C=C[C@]4(C)[C@@]3(F)[C@@H](O)C[C@@]21C [Betamethasone valerate, betamethasone valerate] | 244.47 | 318.18 |  | 266.66 | 169.23 | strong to very strong anti-inflammatory effect |  |  | 82.2 ± 2.84% | Potency for inhibition of TPA-induced epidermal hyperplasia (in words) [1]: strong to very strong potencies; also recorded: most potent agent; IC50 [2, 15]: 29 ± 3 µM; Emax [2, 16]: 73.5 ± 1.76%
2 | 40 ± 15 µM | 40 µM | 60 µM | 110 ± 40 µM | 110 µM | 110 µM |  |  |  |  |  | C[C@@H]1C[C@H]2[C@@H]3C[C@H](F)C4=CC(=O)C=C[C@]4(C)[C@H]3[C@@H](O)C[C@]2(C)[C@H]1C(=O)COC(=O)C(C)(C)C [Fluocortolone 21-pivalate] | 91.68 | 116.67 | medium to strong potencies | 70.30 | 100.0 | medium to strong potencies | 85.18 ± 9.51 % inhibition | 97.91 ± 12.16 % inhibition |  | 

Continued, compound first:

Row | Compound | IC50 [1, 5] | IC50 [1, 7] | IC50 [1, 8] | IC50 [2, 5] | IC50 [2, 11] | IC50 [2, 12] | IC50 [1, 13] | IC50 [1, 14] | IC50 [1, 15] | IC50 [2, 17] | IC50 [2, 18] | Relative potency ([1]; from Hill-equation IC50) | Relative potency ([1]; from IC50 read from curve) | Potency for inhibition of TPA-induced epidermal hyperplasia (in words) ([1]; ranking in text) | Relative potency ([2]; from Hill-equation IC50) | Relative potency ([2]; from IC50 read from curve) | Potency for inhibition of TPA-induced inflammatory cell infiltration (in words) [2] | Emax (% inhibition) [1, 4] | Emax (% inhibition) [2, 4] | Emax [1, 16] | other results
3 | CCC(=O)OCC(=O)[C@@]1(OC(=O)CC)[C@H](C)C[C@H]2[C@H]3[C@H]([C@@H](O)C[C@@]21C)[C@@]1(C)C=CC(=O)C=C1C[C@H]3Cl [Alclometasone dipropionate] |  |  |  |  |  |  |  |  |  |  |  | 41.20 | 70.0 | medium to strong potencies | 241.66 | 183.33 | medium to strong potencies |  |  |  | IC50 ([1]; Mus musculus, read-out: IC50 for inhibition of epidermal thickening (M × 10^−4), from Hill equation, concentration that produced 50% of Emax): 89 µM; IC50 ([1]; Mus musculus, read-out: IC50 for inhibition of epidermal thickening (M × 10^−4), read from concentration-response curve, concentration that inhibited 50% of the TPA effect): 100 µM; Emax ([1]; Mus musculus, topical): 96.6 ± 7.9%; IC50 [1, 3]: 89 ± 30 µM; IC50 ([2]; Mus musculus, read-out: IC50 for inhibition of inflammatory cell infiltration in the dermis (M × 10^−4), from Hill equation, concentration that produced 50% of Emax): 32 µM; IC50 ([2]; Mus musculus, read-out: IC50 for inhibition of inflammatory cell infiltration in the dermis (M × 10^−4), read from concentration-response curve, concentration that inhibited 50% of the TPA effect): 60 µM; Emax ([2]; Mus musculus, topical): 82.1 ± 5.65%; IC50 [2, 3]: 32 ± 9 µM
4 | C[C@@H]1C[C@H]2[C@@H]3CCC4=CC(=O)C=C[C@]4(C)[C@@]3(Cl)[C@@H](O)C[C@]2(C)[C@@]1(OC(=O)c1ccco1)C(=O)CCl [Mometasone furoate, mometasone furoate] | 23 ± 4 µM | 23 µM | 40 µM | 20 ± 5 µM | 20 µM | 30 µM |  |  |  |  |  | 159.43 | 175.0 | strong to very strong potencies | 386.65 | 366.67 | strong to very strong anti-inflammatory effect | 83.31 ± 3.04 % inhibition | 89.98 ± 4.88^ % inhibition |  | Synergistic factor [1, 6]: 1.29; Synergism with auranofin, epidermal hyperplasia (in words) ([1]; auranofin (0.2%) co-administered): no synergism or even additive effect; IC50 [1, 9]: 31 ± 5 µM; IC50 [1, 10]: 40 ± 4 µM; Synergistic factor [2, 6]: 37.50; Synergism with auranofin, inflammatory cell infiltration (in words) ([2]; auranofin (0.2%), FIG. 2): massive synergism; Concentration that, in the absence of auranofin, produced an equal effect to the combination ([2]; equal to 5×10^−4 M with auranofin (0.2%), FIG. 2): 1 mM; Increase in apparent IC50 ([2]; in presence of auranofin (0.2%), Table 10): about 3,800%; IC50 [2, 9]: 0.8 ± 0.1 µM; IC50 [2, 10]: 30 ± 5 µM
5 | CC1(C)O[C@@H]2C[C@H]3[C@@H]4CCC5=CC(=O)CC[C@]5(C)[C@@]4(F)[C@@H](O)C[C@]3(C)[C@]2(C(=O)CCl)O1 [Halcinonide] |  |  |  |  |  |  | 97 µM | 110 µM | 97 ± 13 µM | 31 µM | 60 µM | 37.80 | 63.64 | medium to strong potencies | 249.45 | 183.33 | medium to strong potencies |  |  | 92.5 ± 2.98% | IC50 [2, 15]: 31 ± 5 µM; Emax [2, 16]: 90.3 ± 6.29%
